Measurements: patent US20150173364A1, “HERBICIDAL COMPOSITIONS CONTAINING FLUMIOXAZIN, AMINOPYRALID AND FLUROXYPYR OR 2,4-D” (Dow AgroSciences LLC, priority 2013, published 2015)

System: BOIVE: whitehead broom (Borerria verticillata)
Assay: Postemergence herbicidal activity of mixtures in the field, visual weed control
Format: in vivo
Details: postemergence field trial
Protocol: Field trials were conducted in Brazil in pasture area cultivated with Brachiaria brizantha using standard herbicide small-plot research methodology. The plot size used was 3 meters (m)×8 m (width×length) with 4 replicates per treatment. The pasture was grown using normal cultural practices for fertilization, management, and maintenance to ensure good growth of the crop and the weeds. […] All treatment results, both for the single product and mixtures, are an average of 3 to 4 replicates and the tank-mix interactions are significant at the […] level. Colby's equation was used to determine the herbicidal effects expected from the mixtures (Colby, S. R. Calculation of the synergistic and antagonistic response of herbicide combinations. […] However, the experiments described herein were performed such that active ingredients B and C were combined and only the efficacy of the combination was determined. As such, Colby's equation simplifies to Expected=A+Z−(AZ/100) A=observed efficacy of active ingredient A (flumioxazin) at the same concentration as used in the mixture; […] All comparisons are an average of 3 to 4 replicates and are significant at the […] level.

## C#CCN1C(=O)COc2cc(F)c(N3C(=O)C4=C(CCCC4)C3=O)cc21 [Flumioxazin, 2-[7-fluoro-3,4-dihydro-3-oxo-4-(2-propyn-1-yl)-2H-1,4-benzoxazin-6-yl]-4,5,6,7-tetrahydro-1H-isoindole-1,3(2H)-dione]
Flumioxazin 25 g ai/ha alone
  % Visual Control BOIVE (281 DAA) Obs: 0%
Flumioxazin 50 g ai/ha alone
  % Visual Control BOIVE (281 DAA) Obs: 0%
Flumioxazin 75 g ai/ha alone
  % Visual Control BOIVE (281 DAA) Obs: 4%
Flumioxazin 100 g ai/ha alone
  % Visual Control BOIVE (281 DAA) Obs: 13%
Flumioxazin 125 g ai/ha alone
  % Visual Control BOIVE (281 DAA) Obs: 14%
